Measurements taken from patent publication US20210369640A1, “COMPOSITION CONTAINING SESQUITERPENE DERIVATIVE AS ACTIVE INGREDIENT FOR PREVENTION OR TREATMENT OF MUSCLE DISEASES” (INDUSTRY-ACADEMIC COOPERATION FOUNDATION, YONSEI UNIVERSITY, priority 2017, published 2021).

Columns and labels:
[1] = system: mouse myoblast cell line (C2C12 cells); assay: Myotube thickness in dexamethasone-treated mouse myoblasts (Giemsa-Wright staining, ImageJ); format: cell-based; conditions: 100 μM, vs dexamethasone alone; for increase in thickness of myotubes reduced by dexamethasone: co-treated with 50 μM dexamethasone for two days from day 4 of differentiation, quantified using ImageJ
Procedure: A mouse myoblast cell line (C2C12 cells) was purchased from ATCC (Manassas, Va., USA), and the purchased cells were incubated in a 5% CO2 incubator at 37° C. using 10% fetal bovine serum media (Gibco-BRL). When the confluency of the incubated cells became 80%, the myoblasts were allowed to differentiate into myotubes using 2% horse serum media (Gibco-BRL). The mouse myoblasts incubated in Preparation Example 1 were co-treated with 50 dexamethasone (dexa; Sigma) and 100 μM of sesquiterpene derivatives (experimental materials) for two days from day 4 of differentiation of the mouse myoblasts. An experiment was conducted in the same manner as in Example 1, except for treatment with 50 μM of dexamethasone (dexa; Sigma) instead of the sesquiterpene derivatives (experimental materials). […] When the fixing was completed, the myotubes were naturally dried at room temperature for 10 minutes, and then a Giemsa-Wright staining solution (Asan Pharmaceutical, Seoul), which specifically stains myotubes, was dropped onto the myotubes and left for 30 minutes to stain the myotubes. […] Six sections were randomly selected from each well and micrographed, and the thickness of at least […] myotubes from each well was analyzed (three repetitions/group).

p-4E-BP1 protein = assay: Western blotting of p-4E-BP1 in dexamethasone-treated mouse myoblasts; format: cell-based; conditions: 100 μM, co-treated with dexamethasone; FIG. 3A
Procedure: (§10) The mouse myoblasts incubated in Preparation Example 1 were co-treated with 50 dexamethasone (dexa; Sigma) and 100 μM of sesquiterpene derivatives (experimental materials) for two days from day 4 of differentiation of the mouse myoblasts. An experiment was conducted in the same manner as in Example 1, except for treatment with 50 μM of dexamethasone (dexa; Sigma) instead of the sesquiterpene derivatives (experimental materials). To perform western blotting on cells, a lysis buffer containing 500 μL of 100 mM Tris-HCl, pH 7.4, 5 mM EDTA, 50 mM sodium pyrophosphate, 50 mM NaF, 100 mM orthovanadate, 1% Triton X-100, 1 mM phenylmethanesulfonyl fluoride, 2 μg/mL of aprotinin, 1 μg/mL of pepstatin A, and 1 μg/mL of leupeptin was added to each well from which media were removed, the cells were harvested, and then centrifuged at 1,300×g and 4° C. for 20 minutes, and then the middle layer was taken, and the concentrations of proteins were quantified by the Bradford method (Bio-Rad). 40 μg of the quantified proteins were electrophoresed by SDS-polyacrylamide gel, and then the separated proteins were transferred to nitrocellulose membranes (Amersham, Buckinghamshire, UK). […] Bands visualized on the X-ray film were scanned and quantified using Quantity One analysis software (Bio-Rad).

p-p70S6K1 protein = assay: Western blotting of p-p70S6K1 in dexamethasone-treated mouse myoblasts; format: cell-based; conditions: 100 μM, co-treated with dexamethasone; FIG. 3A
Procedure: as §10

MuRF1 = assay: RT-PCR of MuRF1 gene expression in dexamethasone-treated mouse myoblasts; format: cell-based; conditions: 100 μM, co-treated with dexamethasone; FIG. 3B
Procedure: (§1) A mouse myoblast cell line (C2C12 cells) was purchased from ATCC (Manassas, Va., USA), and the purchased cells were incubated in a 5% CO2 incubator at 37° C. using 10% fetal bovine serum media (Gibco-BRL). When the confluency of the incubated cells became 80%, the myoblasts were allowed to differentiate into myotubes using 2% horse serum media (Gibco-BRL).
(§2) The mouse myoblasts incubated in Preparation Example 1 were co-treated with 50 dexamethasone (dexa; Sigma) and 100 μM of sesquiterpene derivatives (experimental materials) for two days from day 4 of differentiation of the mouse myoblasts.
(§3) An experiment was conducted in the same manner as in Example 1, except for treatment with 50 μM of dexamethasone (dexa; Sigma) instead of the sesquiterpene derivatives (experimental materials).
(§4) 334 μl of a TRIzol solution per 1×10^7 mouse myoblasts of Example 1 was added and replaced, followed by centrifugation at 12,000×g and 4° C. for 10 minutes. The supernatant was transferred to a new tube and then 67 μl of chloroform was added thereto, followed by vortexing. […] The concentration of the extracted RNA samples was measured at wavelengths of 260 nm and 280 nm using a UV/VIS spectrometer (Beckman Coulter, DU730), and was subjected to agarose gel electrophoresis to confirm the integrity of RNA samples. […]

MaFbx/atrogin1 = assay: RT-PCR of MaFbx/atrogin1 gene expression in dexamethasone-treated mouse myoblasts; format: cell-based; conditions: 100 μM, co-treated with dexamethasone; FIG. 3B
Procedure: as §1, §2, §3, §4

C57BL/6N mice [2] = assay: Grip strength test; format: in vivo, mouse; conditions: 200 mpk orally once a day, week 12 of breeding
Source text: (§5) 32 5-week-old male C57BL/6N mice (Orient, Korea) were adapted to a laboratory environment for one week with a commercial normal diet (rodent chow), and then randomly divided into four groups (chow vehicle group, chow α-cedrene group, HFD vehicle group, and HFD α-cedrene group) according to a randomized block design and bred for a total of 10 weeks.
(§6) While mice bred in Preparation Example 2 were fed a normal diet for 10 weeks, 200 mpk α-cedrene was orally administered to the mice once a day.
A procedure was carried out in the same manner as in Example 2, except that the mice were fed a high-fat experimental diet (HFD: 40% high fat energy, 17 g lard+3% corn oil/100 g diet). […]
The grip strength of the mice of Examples 2 and 3 and Comparative Examples 2 and 3 was measured at week 12 of breeding using a grip strength meter for mice (DJ2-248, Daejong Instrument Industry Co., Ltd., Korea). In particular, a force (N) for mice to hold onto a wire mesh was measured while mounting the four feet of mice on a wire mesh to which a gauge was attached, and pulling the tails of the mice backward. The measurement was successively performed five times, and the maximum value was determined as grip strength. To normalize the experimental results, grip strength (N) divided by body weight […] was calculated.

C57BL/6N mice [3] = assay: Four limb hanging test; format: in vivo, mouse; conditions: 200 mpk orally once a day; for hanging time: FIG. 5A; for hanging time multiplied by body weight: FIG. 5B
Source text: as §5, §6
(§7) A procedure was carried out in the same manner as in Example 2, except that the mice were fed a high-fat experimental diet (HFD: 40% high fat energy, 17 g lard+3% corn oil/100 g diet).
(§8) A procedure was carried out in the same manner as in Example 2, except that a vehicle was orally administered instead of 200 mpk α-cedrene, while a commercial normal diet (rodent chow) was ingested.
(§9) A procedure was carried out in the same manner as in Comparative Example 2, except that a high-fat diet (HFD: 40% high fat energy) was ingested.
To measure the limb muscle strength of mice, the time that the mice of Examples 2 and 3 and Comparative Examples 2 and 3 hung upside down using their four feet was measured at week 12 of breeding. The time (seconds) that the mice hung upside down in a cage equipped with a wire mesh cover (diameter <0.5 cm) (20×30×50 cm, Jeung-Do Bio & Plant Co., Ltd, Korea) was measured a total of three times, and a rest period of 30 minutes or longer was given between measurements. Experimental results were obtained by multiplying hanging time (sec) by body weight (kg).

mouse gastrocnemius = assay: H&E staining of muscle tissue, fiber diameter; format: in vivo; conditions: 200 mpk orally once a day, vs vehicle
Source text: as §5, §6, §7, §8, §9
Muscle tissues of mice were extracted, fixed in 10% formalin, and then stained with hematoxylin and eosin (H&E) after requesting Korea CFC (Gyeonggi-do, Korea) to do so, and observed using an optical microscope (IX71, Olympus, JPN) and photographed using a digital camera (DP71, Olympus, JPN).

[4] = high-fat diet, vs HFD vehicle group
[5] = normal diet, vs chow vehicle group

CC1=CC[C@@]23C[C@@H]1C(C)(C)C2CC[C@H]3C (stereo partly drawn) [cedrene, α-cedrene]
increase in thickness of myotubes reduced by dexamethasone [1]: 58%
thickness of myotubes reduced by dexamethasone (visually confirmed, FIG. 1A) ([1]; co-treated with dexamethasone): increased
amount of p-4E-BP1 protein reduced by dexamethasone (p-4E-BP1 protein): significantly increased
amount of p-p70S6K protein reduced by dexamethasone (p-p70S6K1 protein): significantly increased
expression of MuRF1 (MuRF1): significantly reduced
expression of MaFbx/atrogin1 (MaFbx/atrogin1): significantly reduced
increase in grip strength (C57BL/6N mice [2]; [4]): 31%
increase in grip strength (C57BL/6N mice [2]; [5]): 26%
hanging time (C57BL/6N mice [3]; [4]): significantly increased
hanging time multiplied by body weight (C57BL/6N mice [3]; [4]): significantly increased
hanging time (C57BL/6N mice [3]; [5]): significantly increased
hanging time multiplied by body weight (C57BL/6N mice [3]; [5]): significantly increased
increase in fiber diameter of the mouse gastrocnemius (mouse gastrocnemius; CHOW group): 21%
increase in fiber diameter of the mouse gastrocnemius (mouse gastrocnemius; HFD group): 27%

C[C@@H]1CC[C@H]2C(C)(C)[C@H]3C[C@@]12CC1OC13C (some centres unmarked) [cedrene epoxide]
increase in thickness of myotubes reduced by dexamethasone [1]: 38%

CC(=O)O[C@]1(C)CC[C@@]23C[C@@H]1C(C)(C)[C@@H]2CC[C@H]3C [cedryl acetate]
increase in thickness of myotubes reduced by dexamethasone [1]: 51%

C=C1CC[C@@]23C[C@@H]1C(C)(C)C2CC[C@H]3C (stereo partly drawn) [β-cedrene]
increase in thickness of myotubes reduced by dexamethasone [1]: 36%

CC(=O)C1=C(C)[C@@H]2C[C@@]3(C1)[C@H](C)CC[C@H]3C2(C)C [methyl cedryl ketone]
increase in thickness of myotubes reduced by dexamethasone [1]: 32%

C[C@@H]1CC[C@H]2C(C)(C)[C@H]3C[C@@]12CC[C@@]3(C)O [cedrol]
increase in thickness of myotubes reduced by dexamethasone [1]: 40%

CC1=CCC23CC1C(C)(CO)C2CCC3C (centres unmarked) [cedrenol]
increase in thickness of myotubes reduced by dexamethasone [1]: 43%
